The values below are quoted from earlier work in patent publication US12414943B2 (ACASTI PHARMA U.S., INC., priority 2022, dated 2025).

For data set [1] the following is noted: man, oral.
For data set [2] the following is noted: nimodipine-treated SAH patients.

Each structure is given as a SMILES string.

Take `COCCOC(=O)C1=C(C)NC(C)=C(C(=O)OC(C)C)C1c1cccc([N+](=O)[O-])c1` (centres unmarked) [Nimodipine, isopropyl2-methoxyethyl 1,4-dihydro-2,6-dimethyl-4-(m-nitrophenyl)-3,5-pyridinedicarboxylate]: the “half-life equivalent to earlier elimination rates” value in data set [1] is 1 to 2 h. Besides, the “concentration in the cerebrospinal fluid” value in data set [2] is given as at most 12.5 ng/mL.
